Results on two compounds are retold here after patent publication US8895610B1, “Platinum (IV) compounds targeting zinc finger domains” (priority 2007, dated 2014).

“And” between values parts separate entries of the source, which are not always exact repeats. Equal values may be shown once. Bounds are passed on as bounds.

In experiment [1] the target is STAT3 (Homo sapiens, UniProt P40763). The note with it: have been shown; cited from earlier work.
For experiment [2], the system named is FIV Petaluma. In words: p25 antigen evaluation of antiviral activity in MBM cells. The format is cell-based, feline. As to conditions: for p25 Viral Antigen (OD), average / p25 Viral Antigen (OD), individual wells: 7 days post infection, K+ = 1.195, K− = 0.08. How it is done:
Antiviral activity in MBM was determined by inoculating 200 Tissue Culture Infectious Doses 50% FIV Petaluma (Talbott, 1989) in 100 μL RPMI 1640 medium into quadruplicate wells of 96-well microplates containing 2×10^5 cells in 100 μL medium. The cultures were monitored by measuring FIV p25 capsid protein (Lombardi, 1994) release in the supernatants after 7 days of incubation at 37° C. in 5% CO2 (Table 12). Half the media (without drug) was replaced on days 2 and 6 after infection and initial drug exposure. […] Drugs are identified as: CPA-7 (#1); NAD (#2); cisplatin (#3) and FX101 (#4). […]. […] A minimum of 50% inhibition in vitro is required to offset viral infectivity and replication in vivo.

STAT3, sequence (P40763 whole entry, species assumed): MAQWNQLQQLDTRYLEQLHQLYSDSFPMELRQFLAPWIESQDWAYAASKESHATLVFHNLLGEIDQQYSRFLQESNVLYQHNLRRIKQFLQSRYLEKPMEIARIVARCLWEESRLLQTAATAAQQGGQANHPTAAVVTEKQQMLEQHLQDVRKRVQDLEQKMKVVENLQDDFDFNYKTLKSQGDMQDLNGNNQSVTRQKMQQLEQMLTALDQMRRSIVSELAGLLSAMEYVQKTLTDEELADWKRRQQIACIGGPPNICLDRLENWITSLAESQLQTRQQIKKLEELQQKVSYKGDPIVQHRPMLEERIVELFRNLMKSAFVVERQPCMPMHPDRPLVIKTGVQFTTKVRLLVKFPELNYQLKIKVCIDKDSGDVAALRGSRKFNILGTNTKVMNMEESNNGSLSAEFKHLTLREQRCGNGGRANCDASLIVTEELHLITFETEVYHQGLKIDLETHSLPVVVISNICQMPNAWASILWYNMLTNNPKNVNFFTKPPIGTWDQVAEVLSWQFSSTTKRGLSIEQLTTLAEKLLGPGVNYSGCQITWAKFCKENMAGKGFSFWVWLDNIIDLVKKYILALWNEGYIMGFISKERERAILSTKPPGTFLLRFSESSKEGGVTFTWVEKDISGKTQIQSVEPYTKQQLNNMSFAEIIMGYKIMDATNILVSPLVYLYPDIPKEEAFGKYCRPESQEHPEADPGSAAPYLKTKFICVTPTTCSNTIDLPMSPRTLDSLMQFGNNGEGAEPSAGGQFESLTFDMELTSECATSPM

For the compound `[NH2][Pt]([NH2])([Cl])([Cl])([Cl])[N+](=O)[O-]` [Drug #1], in experiment [1], the “inhibition of STAT3” value is “inhibit STAT3”. Further, the “inhibition (elimination of all measures of virus) by day 7” value in experiment [2] (7 days, concentrations used 5 and 20 μM) is given as less than 30%. Moreover, in experiment [2] (conc 5 μM), the “p25 Viral Antigen (OD), average” value stood at 1.0943 OD; the “p25 Viral Antigen (OD), individual wells” value was 1.093 OD and 1.122 OD and 1.068 OD. In experiment [2] (conc 20 μM), the “p25 Viral Antigen (OD), average” value is given as 0.8163 OD; the “p25 Viral Antigen (OD), individual wells” value was 0.788 OD and 0.825 OD and 0.836 OD. Moreover, the “antiviral effectiveness (in words)” value in experiment [2] (p25 release, MBM cells, 7 days) was “insignificantly effective”.

Turning to `N.N.[Cl][Pt][Cl]` [Drug #3, cisplatin], in experiment [2] (conc 5 μM), the “p25 Viral Antigen (OD), average” value stood at 1.0157 OD; the “p25 Viral Antigen (OD), individual wells” value was 1.04 OD and 1.021 OD and 0.986 OD. For the same compound, in experiment [2] (conc 20 μM), the “p25 Viral Antigen (OD), average” value was found to be 1.0133 OD; the “p25 Viral Antigen (OD), individual wells” value was 1.014 OD and 1.033 OD and 0.993 OD.
